In patent US20200354348A1, “SEMISYNTHETIC AURONES AND METHODS OF USE THEREOF” (University of Kentucky Research Foundation, priority 2018, published 2020):
Where a name gives a salt, the structure may show the parent alone.

Legend:
LS174T cells = experiment: Proliferation inhibition assay, LS174T; type: cell-based; settings: for inhibition at 1 µM / inhibition at 10 µM / inhibition at 0.3 µM: Homo sapiens, LS174T; for inhibition at 0.3 µM: 300 nM
Method: (§1) Cell Culture. LS174T (colon cancer cells), PC-3 (prostate cancer cells), MCF-7 (beast) and A549 (lung) were cultured in the medium recommended by American Type Culture Collection at 37° C. with 5% CO2 atmosphere in a water jacketed incubator. Ovcar-8 and NCI/ADR-RES are gifts from Dr. Markos Leggas. Alpha-tubulin antibodies, TRITC-conjugated anti-rabbit antibody.
(§2) Proliferation inhibition assay. Cancer cells were seeded into 24-well plates at a density of 20,000 cells per well in 1 mL of culture medium and cultured overnight at 37° C. Compounds and the vehicle control DMSO were added to the cells. After 6 days, medium was removed and 100 μL of trypsin was added. Then the cells resuspended in pbs were counted by Vi-CELL XR 2.03 (Beckman Coulter, Inc. USA). The ratio R of the number of viable cells in the compound treatment group to the number of viable cells in DMSO treatment group was taken as relative growth, and the percentage growth inhibition was calculated as: (1−R)*100. For initial testing, compounds were added to the cells at a final concentration 10 μM. Active compounds at 10 μM would be tested at lower concentrations.

PC-3 cells = experiment: Proliferation inhibition assay, PC-3; type: cell-based
Method: as §1, §2

[1] = Homo sapiens, PC-3, 1 μM, Table 1
[2] = Homo sapiens, PC-3, 10 μM, Table 1
[3] = Homo sapiens, PC-3, 10 μM, Table 2
[4] = Homo sapiens, PC-3, 1 μM, Table 2
[5] = Homo sapiens, PC-3, 300 nM, Table 2

CN1CCN(c2ccc(/C=C3\Oc4cc(O)ccc4C3=O)cc2)CC1 (as salt: hydrochloride)
melting point: > 220 °C

O=C1/C(=C/c2ccc(N3CCCC3)cc2)Oc2cc(O)ccc21 [Aurone 2a, (2Z)-6-Hydroxy-2-(4-pyrrolidin-1-ylbenzylidene)-1-benzofuran-3(2H)-one]
melting point: > 220 °C

O=C1/C(=C/c2ccc(N3CCCC3)cc2)Oc2cc(O)ccc21 [Aurone 2a]
inhibition at 1 µM (LS174T cells; 1 μM, Table 1): 0%
inhibition at 10 µM (LS174T cells; 10 μM, Table 1): 23 ± 2.9%
inhibition at 1 µM (PC-3 cells; [1]): 2.1 ± 7.1%
inhibition at 10 µM (PC-3 cells; [2]): 95 ± 4.7%

O=C1/C(=C/c2ccc(N3CCOCC3)cc2)Oc2cc(O)ccc21 [Aurone 2b, (2Z)-6-Hydroxy-2-(4-morpholin-4-ylbenzylidene)-1-benzofuran-3(2H)-one]
melting point: > 220 °C

O=C1/C(=C/c2ccc(N3CCOCC3)cc2)Oc2cc(O)ccc21 [Aurone 2b]
inhibition at 10 µM (LS174T cells; 10 μM, Table 1): 0%
inhibition at 10 µM (PC-3 cells; [2]): 7.8 ± 7.7%

O=C1/C(=C/c2ccc(N3CCSCC3)cc2)Oc2cc(O)ccc21 [Aurone 2d, (2Z)-6-Hydroxy-2-[(4-thiomorpholin-4-ylbenzylidene)]-1-benzofuran-3(2H)-one]
melting point: > 220 °C

CN(C)c1ccc(/C=C2\Oc3cc(O)ccc3C2=O)c(Cl)c1 [Aurone 2e, (2Z)-2-[2-Chloro-4-(dimethylamino)benzylidene]-6-hydroxy-1-benzofuran-3(2H)-one]
melting point: > 220 °C

CCN(CC)c1ccc(/C=C2\Oc3cc(O)ccc3C2=O)c(OC)c1 [Aurone 2f, (2Z)-2-[4-(Diethylamino)-2-methoxybenzylidene]-6-hydroxy-1-benzofuran-3(2H)-one]
melting point: > 220 °C

O=C1/C(=C/c2ccccn2)Oc2cc(O)ccc21 [Aurone 3a, (2Z)-6-Hydroxy-2-(pyridin-2-ylmethylene)-1-benzofuran-3(2H)-one]
melting point: 246 to 248 °C

O=C1/C(=C/c2ccccn2)Oc2cc(O)ccc21 [Aurone 3a]
inhibition at 10 µM (LS174T cells; 10 μM, Table 1): 0%
inhibition at 10 µM (PC-3 cells; [2]): 8.8 ± 15%

O=C1/C(=C/c2cccnc2)Oc2cc(O)ccc21 [Aurone 3b, (2Z)-6-Hydroxy-2-(pyridin-3-ylmethylene)-1-benzofuran-3(2H)-one]
melting point: 255 to 257 °C

O=C1/C(=C/c2cccnc2)Oc2cc(O)ccc21 [Aurone 3b]
inhibition at 10 µM (LS174T cells; 10 μM, Table 1): 11 ± 3.6%
inhibition at 10 µM (PC-3 cells; [2]): 0%

O=C1/C(=C/c2nccc3ccccc23)Oc2cc(O)ccc21 [Aurone 3d, (2Z)-6-Hydroxy-2-(isoquinolin-1-ylmethylene)-1-benzofuran-3(2H)-one]
melting point: > 220 °C

O=C1/C(=C/c2nccc3ccccc23)Oc2cc(O)ccc21 [Aurone 3d]
inhibition at 1 µM (LS174T cells; 1 μM, Table 1): 2.7 ± 6.4%
inhibition at 10 µM (LS174T cells; 10 μM, Table 1): 79 ± 3.6%
inhibition at 10 µM (PC-3 cells; [2]): 88 ± 5.5%

O=C1/C(=C/c2ccc3ccccc3n2)Oc2cc(O)ccc21 [Aurone 3e, (2Z)-6-Hydroxy-2-(quinolin-2-ylmethylene)-1-benzofuran-3(2H)-one]
melting point: 249 to 251 °C

O=C1/C(=C/c2ccc3ccccc3n2)Oc2cc(O)ccc21 [Aurone 3e]
inhibition at 1 µM (LS174T cells; 1 μM, Table 1): 7.7 ± 9.9%
inhibition at 10 µM (LS174T cells; 10 μM, Table 1): 96 ± 0.9%
inhibition at 1 µM (PC-3 cells; [1]): 26 ± 8.6%
inhibition at 10 µM (PC-3 cells; [2]): 99 ± 0.2%

COc1ccc2nc(/C=C3\Oc4cc(O)ccc4C3=O)ccc2c1 [Aurone 3f, (2Z)-6-Hydroxy-2-[(6-methoxyquinolin-2-yl)methylene]-1-benzofuran-3(2H)-one]
melting point: 269 to 271 °C

COc1ccc2nc(/C=C3\Oc4cc(O)ccc4C3=O)ccc2c1 [Aurone 3f]
inhibition at 10 µM (LS174T cells; 10 μM, Table 1): 6.1 ± 13%
inhibition at 10 µM (PC-3 cells; [2]): 8.4 ± 33%

COc1cccc2ccc(/C=C3\Oc4cc(O)ccc4C3=O)nc12 [Aurone 3g, (2Z)-6-Hydroxy-2-[(8-methoxyquinolin-2-yl)methylene]-1-benzofuran-3(2H)-one]
melting point: 250 to 252 °C

COc1cccc2ccc(/C=C3\Oc4cc(O)ccc4C3=O)nc12 [Aurone 3g]
inhibition at 1 µM (LS174T cells; 1 μM, Table 1): 20 ± 9.1%
inhibition at 10 µM (LS174T cells; 10 μM, Table 1): 91 ± 2.4%
inhibition at 1 µM (PC-3 cells; [1]): 40 ± 8.4%
inhibition at 10 µM (PC-3 cells; [2]): 97 ± 0.8%

O=C1/C(=C/c2ccnc3ccccc23)Oc2cc(O)ccc21 [Aurone 3h, (2Z)-6-Hydroxy-2-(quinolin-4-ylmethylene)-1-benzofuran-3(2H)-one]
melting point: 278 to 280 °C

O=C1/C(=C/c2ccnc3ccccc23)Oc2cc(O)ccc21 [Aurone 3h]
inhibition at 10 µM (LS174T cells; 10 μM, Table 1): 34 ± 11%
inhibition at 1 µM (PC-3 cells; [1]): 16 ± 3.5%
inhibition at 10 µM (PC-3 cells; [2]): 63 ± 7.2%

O=C1/C(=C/c2c[nH]c3ccccc23)Oc2cc(O)ccc21 [Aurone 3i, (2Z)-6-Hydroxy-2-(1H-indol-3-ylmethylene)-1-benzofuran-3(2H)-one]
melting point: 280 to 282 °C

O=C1/C(=C/c2c[nH]c3ccccc23)Oc2cc(O)ccc21 [Aurone 3i]
inhibition at 10 µM (LS174T cells; 10 μM, Table 1): 44 ± 8.6%
inhibition at 10 µM (PC-3 cells; [2]): 20 ± 6.8%

Cn1cc(/C=C2\Oc3cc(O)ccc3C2=O)c2ccccc21 [Aurone 3j, (2Z)-6-Hydroxy-2-[(1-methyl-1H-indol-3-yl)methylene]-1-benzofuran-3(2H)-one]
melting point: 272 to 274 °C

Cn1cc(/C=C2\Oc3cc(O)ccc3C2=O)c2ccccc21 [Aurone 3j]
inhibition at 10 µM (LS174T cells; 10 μM, Table 1): 54 ± 15%
inhibition at 10 µM (PC-3 cells; [2]): 41 ± 25%

COc1ccc2c(c1)c(/C=C1\Oc3cc(O)ccc3C1=O)cn2C [Aurone 3k]
inhibition at 1 µM (LS174T cells; 1 μM, Table 1): 13 ± 2.4%
inhibition at 10 µM (LS174T cells; 10 μM, Table 1): 63 ± 0.7%
inhibition at 1 µM (PC-3 cells; [1]): 17 ± 5.5%
inhibition at 10 µM (PC-3 cells; [2]): 35 ± 28%

CCn1cc(/C=C2\Oc3cc(O)ccc3C2=O)c2cc(OC)ccc21 [Aurone 3l]
inhibition at 1 µM (LS174T cells; 1 μM, Table 1): 4.5 ± 7.3%
inhibition at 10 µM (LS174T cells; 10 μM, Table 1): 83 ± 1.2%
inhibition at 1 µM (PC-3 cells; [1]): 13 ± 9.5%
inhibition at 10 µM (PC-3 cells; [2]): 69 ± 16%

CCn1cc(/C=C2\Oc3cc(OCC#N)ccc3C2=O)c2cc(O)ccc21 [Aurone 4b]
Inhibition of LS174T Cells 1 μM (LS174T cells; 1 μM, Table 2): 26 ± 15%
Inhibition of LS174T Cells 10 μM (LS174T cells; 10 μM, Table 2): 83 ± 4.8%
Inhibition of PC-3 Cells 300 nM (PC-3 cells; 300 nM, Table 2): 24 ± 11%
Inhibition of PC-3 Cells 1 μM (PC-3 cells; 1 μM, Table 2): 96 ± 2%
Inhibition of PC-3 Cells 10 μM (PC-3 cells; 10 μM, Table 2): 96 ± 1.6%

Cn1cc(/C=C2\Oc3cc(OCc4ccccc4F)ccc3C2=O)c2ccccc21 [Aurone 4d]
inhibition at 10 µM (LS174T cells; 10 μM, Table 2): 7.1 ± 17%
inhibition at 10 µM (PC-3 cells; [3]): 0%

Cn1cc(/C=C2\Oc3cc(OCc4ccccc4Cl)ccc3C2=O)c2ccccc21 [Aurone 4e]
inhibition at 10 µM (LS174T cells; 10 μM, Table 2): 0%
inhibition at 10 µM (PC-3 cells; [3]): 20 ± 6.6%

Cn1cc(/C=C2\Oc3cc(OCc4c(F)cccc4F)ccc3C2=O)c2ccccc21 [Aurone 4f]
inhibition at 10 µM (LS174T cells; 10 μM, Table 2): 0.5 ± 1.7%
inhibition at 10 µM (PC-3 cells; [3]): 82 ± 4.3%

Cn1cc(/C=C2\Oc3cc(OCc4c(F)cccc4Cl)ccc3C2=O)c2ccccc21 [Aurone 4h]
inhibition at 10 µM (LS174T cells; 10 μM, Table 2): 38 ± 2%
inhibition at 1 µM (PC-3 cells; [4]): 0%
inhibition at 10 µM (PC-3 cells; [3]): 31 ± 40%

COc1ccc2c(c1)c(/C=C1\Oc3cc(OCc4c(F)cccc4Cl)ccc3C1=O)cn2C [Aurone 4k]
inhibition at 10 µM (LS174T cells; 10 μM, Table 2): 53 ± 8.9%
inhibition at 10 µM (PC-3 cells; [3]): 57 ± 18%

CCn1cc(/C=C2\Oc3cc(OCc4ccccc4F)ccc3C2=O)c2cc(OC)ccc21 [Aurone 4n]
inhibition at 1 µM (LS174T cells; 1 μM, Table 2): 0%
inhibition at 10 µM (LS174T cells; 10 μM, Table 2): 28 ± 11%
inhibition at 1 µM (PC-3 cells; [4]): 28 ± 15%
inhibition at 10 µM (PC-3 cells; [3]): 52 ± 23%

CCn1cc(/C=C2\Oc3cc(OCc4c(Cl)cccc4Cl)ccc3C2=O)c2cc(OC)ccc21 [Aurone 4o]
inhibition at 0.3 µM (LS174T cells; Table 2): 3.3 ± 24%
inhibition at 1 µM (LS174T cells; 1 μM, Table 2): 7.3 ± 18%
inhibition at 10 µM (LS174T cells; 10 μM, Table 2): 94 ± 1.7%
inhibition at 0.3 µM (PC-3 cells; [5]): 3.9 ± 11%
inhibition at 1 µM (PC-3 cells; [4]): 67 ± 5.8%
inhibition at 10 µM (PC-3 cells; [3]): 96 ± 1.1%

CCn1cc(/C=C2\Oc3cc(OCc4c(F)cccc4Cl)ccc3C2=O)c2ccccc21 [Aurone 4p]
inhibition at 1 µM (LS174T cells; 1 μM, Table 2): 5.1 ± 19%
inhibition at 10 µM (LS174T cells; 10 μM, Table 2): 93 ± 3.2%
inhibition at 0.3 µM (PC-3 cells; [5]): 44 ± 5.6%
inhibition at 1 µM (PC-3 cells; [4]): 91 ± 2.2%
inhibition at 10 µM (PC-3 cells; [3]): 95 ± 4.4%

CCn1cc(/C=C2\Oc3cc(OCc4c(Cl)cccc4Cl)ccc3C2=O)c2ccccc21 [Aurone 4q]
inhibition at 0.3 µM (LS174T cells; Table 2): 0%
inhibition at 1 µM (LS174T cells; 1 μM, Table 2): 93 ± 2.5%
inhibition at 10 µM (LS174T cells; 10 μM, Table 2): 96%
inhibition at 0.1 µM (PC-3 cells; Homo sapiens, PC-3, 100 nM, Table 2): 17 ± 6.8%
inhibition at 0.3 µM (PC-3 cells; [5]): 75 ± 7.7%
inhibition at 1 µM (PC-3 cells; [4]): 98 ± 1%
inhibition at 10 µM (PC-3 cells; [3]): 97 ± 0.6%
